Experimental data reported in the NIST ThermoML archive (doi:10.1021/acs.jced.6b00536).

Test: xn = mol fraction of the nth substance listed
Details: Gas, Frequency=0.05 MHz, Single path-length method, x2 = 0.058

FC(F)(F)C(F)(F)C(F)(F)F [octafluoropropane] + N#N
Details	speed of sound [m/s]
252.62 K, 0.0858 kPa	109
252.62 K, 0.1039 kPa	108.4
252.62 K, 0.1203 kPa	107.8
252.62 K, 0.137 kPa	107.18
252.62 K, 0.1525 kPa	106.62
252.62 K, 0.1669 kPa	106.06
252.62 K, 0.1773 kPa	105.75
252.62 K, 0.1861 kPa	105.38
252.62 K, 0.1862 kPa	105.38
257.71 K, 0.08757 kPa	110.16
257.71 K, 0.1056 kPa	109.59
257.71 K, 0.1227 kPa	109
257.71 K, 0.1398 kPa	108.4
257.71 K, 0.1558 kPa	107.86
257.71 K, 0.1702 kPa	107.33
257.71 K, 0.181 kPa	107.04
257.71 K, 0.1898 kPa	106.68
257.71 K, 0.19 kPa	106.68
257.71 K, 0.2222 kPa	105.46
257.71 K, 0.2396 kPa	104.86
257.71 K, 0.2541 kPa	104.28
257.71 K, 0.2547 kPa	104.37
262.83 K, 0.08917 kPa	111.32
262.83 K, 0.1075 kPa	110.77
262.83 K, 0.125 kPa	110.2
262.83 K, 0.1429 kPa	109.63
262.83 K, 0.1589 kPa	109.12
262.83 K, 0.1737 kPa	108.6
262.83 K, 0.1844 kPa	108.31
262.83 K, 0.1937 kPa	107.97
262.83 K, 0.1942 kPa	107.97
262.83 K, 0.2273 kPa	106.8
262.83 K, 0.2449 kPa	106.21
262.83 K, 0.2605 kPa	105.64
262.83 K, 0.2771 kPa	105.01
262.83 K, 0.2894 kPa	104.6
267.94 K, 0.09058 kPa	112.46
267.94 K, 0.1095 kPa	111.93
267.94 K, 0.1273 kPa	111.39
267.94 K, 0.1462 kPa	110.83
267.94 K, 0.1619 kPa	110.33
267.94 K, 0.1773 kPa	109.83
267.94 K, 0.1883 kPa	109.56
267.94 K, 0.1978 kPa	109.24
267.94 K, 0.1983 kPa	109.23
267.94 K, 0.2324 kPa	108.11
267.94 K, 0.2503 kPa	107.55
267.94 K, 0.2663 kPa	106.99
267.94 K, 0.2836 kPa	106.41
267.94 K, 0.2966 kPa	105.98
273.07 K, 0.09281 kPa	113.6
273.07 K, 0.1111 kPa	113.09
273.07 K, 0.1299 kPa	112.57
273.07 K, 0.149 kPa	112.03
273.07 K, 0.1655 kPa	111.55
273.07 K, 0.1819 kPa	111.06
273.07 K, 0.1923 kPa	110.81
273.07 K, 0.2019 kPa	110.5
273.07 K, 0.2023 kPa	110.49
273.07 K, 0.2381 kPa	109.41
273.07 K, 0.2555 kPa	108.88
273.07 K, 0.2726 kPa	108.31
273.07 K, 0.2918 kPa	107.72
273.07 K, 0.3039 kPa	107.38
278.15 K, 0.0943 kPa	114.71
278.15 K, 0.1132 kPa	114.22
278.15 K, 0.1321 kPa	113.71
278.15 K, 0.1515 kPa	113.2
278.15 K, 0.1686 kPa	112.73
278.15 K, 0.1856 kPa	112.27
278.15 K, 0.1961 kPa	112.03
278.15 K, 0.2057 kPa	111.72
278.15 K, 0.2062 kPa	111.72
278.15 K, 0.2428 kPa	110.66
278.15 K, 0.2609 kPa	110.16
278.15 K, 0.2783 kPa	109.63
278.15 K, 0.2983 kPa	109.03
278.15 K, 0.3119 kPa	108.65
283.2 K, 0.09562 kPa	115.81
283.2 K, 0.1152 kPa	115.33
283.2 K, 0.1344 kPa	114.84
283.2 K, 0.1548 kPa	114.34
283.2 K, 0.1718 kPa	113.88
283.2 K, 0.1892 kPa	113.45
283.2 K, 0.1997 kPa	113.19
283.2 K, 0.2093 kPa	112.93
283.2 K, 0.2102 kPa	112.92
283.2 K, 0.2476 kPa	111.9
283.2 K, 0.2662 kPa	111.41
283.2 K, 0.2839 kPa	110.89
283.2 K, 0.3047 kPa	110.33
283.2 K, 0.3184 kPa	109.97
288.26 K, 0.09724 kPa	116.9
288.26 K, 0.117 kPa	116.43
288.26 K, 0.1367 kPa	115.96
288.26 K, 0.1569 kPa	115.48
288.26 K, 0.175 kPa	115.05
288.26 K, 0.193 kPa	114.61
288.26 K, 0.2034 kPa	114.38
288.26 K, 0.2133 kPa	114.1
288.26 K, 0.2142 kPa	114.08
288.26 K, 0.2525 kPa	113.14
288.26 K, 0.2716 kPa	112.65
288.26 K, 0.2896 kPa	112.16
288.26 K, 0.3111 kPa	111.61
288.26 K, 0.3249 kPa	111.24
